Laboratory results as given in the supplement of paper PMC10307832.

Legend:
Experiment in all cases: relative viability (nuclei count vs DMSO), 5 days (fraction); higher = more cells survive
[1] = test system: NCI-H2009
Outline: (§1)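 Relative viability was taken as the ratio of nuclei in treated wells to nuclei in vehicle wells. Lung cancer cell lines in 1536-well plates received compounds by pin tool one day after seeding, either one drug alone or a fixed anchor-drug dose plus five library-drug doses (not always all listed) in √10 steps. Nuclei were counted on 4× images after 5 days of treatment, and values are medians of duplicate plates.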

[2] = test system: SK-LU-1
Outline: as §1

[3] = test system: NCI-H2228
Outline: as §1

[4] = test system: HOP-62
Outline: as §1

[5] = test system: A-427
Outline: as §1

[6] = test system: NCI-H1975
Outline: as §1

[7] = test system: NCI-H1792
Outline: as §1

[8] = test system: EMC-BAC-2
Outline: as §1

[9] = test system: CAL-12T
Outline: as §1

[10] = test system: HARA
Outline: as §1

[11] = test system: HCC-827
Outline: as §1

[12] = test system: NCI-H460
Outline: as §1

[13] = test system: NCI-H23
Outline: as §1

[14] = test system: SW 1573
Outline: as §1

[15] = test system: NCI-H1355
Outline: as §1

[16] = test system: NCI-H1437
Outline: as §1

[17] = test system: NCI-H1915
Outline: as §1

[18] = test system: NCI-H727
Outline: as §1

[19] = test system: HCC-366
Outline: as §1

[20] = test system: NCI-H1755
Outline: as §1

[21] = test system: COR-L 105
Outline: as §1

[22] = test system: LCLC-103H
Outline: as §1

Compound: C=C1C(=O)O[C@@H](CCCCCCCC)[C@@H]1C(=O)O [C-75] + C[C@@H](Oc1cc(-c2cnn(C3CCNCC3)c2)cnc1N)c1c(Cl)ccc(F)c1Cl [Crizotinib] (partner 1 µM)
- relative viability ([1]; first compound 0.08 µM): 1.04
- relative viability ([1]; first compound 0.253 µM): 1.01
- relative viability ([1]; first compound 0.8 µM): 0.987
- relative viability ([1]; first compound 2.53 µM): 0.78
- relative viability ([1]; first compound 8 µM): 0.968
- relative viability ([2]; first compound 0.08 µM): 0.801
- relative viability ([2]; first compound 0.253 µM): 0.987
- relative viability ([2]; first compound 0.8 µM): 0.883
- relative viability ([2]; first compound 2.53 µM): 0.907
- relative viability ([2]; first compound 8 µM): 0.655
- relative viability ([3]; first compound 0.08 µM): 0.548
- relative viability ([3]; first compound 0.253 µM): 0.472
- relative viability ([3]; first compound 0.8 µM): 0.412
- relative viability ([3]; first compound 2.53 µM): 0.438
- relative viability ([3]; first compound 8 µM): 0.596
- relative viability ([4]; first compound 0.08 µM): 0.99
- relative viability ([4]; first compound 0.253 µM): 0.849
- relative viability ([4]; first compound 0.8 µM): 0.81
- relative viability ([4]; first compound 2.53 µM): 0.824
- relative viability ([4]; first compound 8 µM): 1
- relative viability ([5]; first compound 0.08 µM): 0.929
- relative viability ([5]; first compound 0.253 µM): 1.11
- relative viability ([5]; first compound 0.8 µM): 0.883
- relative viability ([5]; first compound 2.53 µM): 0.69
- relative viability ([5]; first compound 8 µM): 0.898
- relative viability ([6]; first compound 0.08 µM): 0.987
- relative viability ([6]; first compound 0.253 µM): 0.929
- relative viability ([6]; first compound 0.8 µM): 0.908
- relative viability ([6]; first compound 2.53 µM): 0.773
- relative viability ([6]; first compound 8 µM): 0.935
- relative viability ([7]; first compound 0.08 µM): 1.01
- relative viability ([7]; first compound 0.253 µM): 0.918
- relative viability ([7]; first compound 0.8 µM): 0.919
- relative viability ([7]; first compound 2.53 µM): 0.857
- relative viability ([7]; first compound 8 µM): 0.879
- relative viability ([8]; first compound 0.08 µM): 0.752
- relative viability ([8]; first compound 0.253 µM): 0.731
- relative viability ([8]; first compound 0.8 µM): 0.744
- relative viability ([8]; first compound 2.53 µM): 0.692
- relative viability ([8]; first compound 8 µM): 0.704
- relative viability ([9]; first compound 0.08 µM): 0.597
- relative viability ([9]; first compound 0.253 µM): 0.626
- relative viability ([9]; first compound 0.8 µM): 0.586
- relative viability ([9]; first compound 8 µM): 0.849
- relative viability ([10]; first compound 0.08 µM): 1
- relative viability ([10]; first compound 0.253 µM): 1.15
- relative viability ([10]; first compound 0.8 µM): 0.944
- relative viability ([10]; first compound 8 µM): 1.05
- relative viability ([11]; first compound 0.08 µM): 0.917
- relative viability ([11]; first compound 0.253 µM): 0.88
- relative viability ([11]; first compound 0.8 µM): 0.872
- relative viability ([11]; first compound 2.53 µM): 0.973
- relative viability ([11]; first compound 8 µM): 0.946
- relative viability ([12]; first compound 0.08 µM): 0.88
- relative viability ([12]; first compound 0.253 µM): 1.07
- relative viability ([12]; first compound 0.8 µM): 0.696
- relative viability ([12]; first compound 8 µM): 0.696
- relative viability ([13]; first compound 0.08 µM): 0.509
- relative viability ([13]; first compound 0.253 µM): 0.579
- relative viability ([13]; first compound 0.8 µM): 0.522
- relative viability ([13]; first compound 2.53 µM): 0.507
- relative viability ([13]; first compound 8 µM): 0.534
- relative viability ([14]; first compound 0.08 µM): 0.812
- relative viability ([14]; first compound 0.253 µM): 0.842
- relative viability ([14]; first compound 0.8 µM): 0.768
- relative viability ([14]; first compound 2.53 µM): 0.809
- relative viability ([14]; first compound 8 µM): 0.754
- relative viability ([15]; first compound 0.08 µM): 1.05
- relative viability ([15]; first compound 0.253 µM): 1.01
- relative viability ([15]; first compound 0.8 µM): 0.97
- relative viability ([15]; first compound 2.53 µM): 1.1
- relative viability ([15]; first compound 8 µM): 1.01
- relative viability ([16]; first compound 0.08 µM): 0.859
- relative viability ([16]; first compound 0.253 µM): 0.968
- relative viability ([16]; first compound 0.8 µM): 0.936
- relative viability ([16]; first compound 2.53 µM): 0.983
- relative viability ([16]; first compound 8 µM): 0.936
- relative viability ([17]; first compound 0.08 µM): 0.924
- relative viability ([17]; first compound 0.253 µM): 0.914
- relative viability ([17]; first compound 0.8 µM): 0.879
- relative viability ([17]; first compound 2.53 µM): 0.819
- relative viability ([17]; first compound 8 µM): 0.804
- relative viability ([18]; first compound 0.08 µM): 0.825
- relative viability ([18]; first compound 0.253 µM): 1.2
- relative viability ([18]; first compound 0.8 µM): 0.772
- relative viability ([18]; first compound 2.53 µM): 0.57
- relative viability ([18]; first compound 8 µM): 1.11
- relative viability ([19]; first compound 0.08 µM): 0.508
- relative viability ([19]; first compound 0.253 µM): 0.76
- relative viability ([19]; first compound 0.8 µM): 0.5
- relative viability ([19]; first compound 8 µM): 0.509
- relative viability ([20]; first compound 0.08 µM): 0.87
- relative viability ([20]; first compound 0.253 µM): 0.853
- relative viability ([20]; first compound 0.8 µM): 0.836
- relative viability ([20]; first compound 2.53 µM): 0.541
- relative viability ([20]; first compound 8 µM): 0.824
- relative viability ([21]; first compound 0.08 µM): 0.707
- relative viability ([21]; first compound 0.253 µM): 0.808
- relative viability ([21]; first compound 0.8 µM): 0.949
- relative viability ([21]; first compound 2.53 µM): 0.921
- relative viability ([21]; first compound 8 µM): 0.566
- relative viability ([22]; first compound 0.08 µM): 1.08
- relative viability ([22]; first compound 0.253 µM): 1.03
- relative viability ([22]; first compound 0.8 µM): 1.05
- relative viability ([22]; first compound 2.53 µM): 0.899
- relative viability ([22]; first compound 8 µM): 0.978
